Data reported in US8871933B2, “Purified pyrroloquinolinyl-pyrrolidine-2,5-dione compositions and methods for preparing and using same” (ArQule, Inc., priority 2009, dated 2014).

Experiments:
[1] = target: T1, c-Met (Homo sapiens, UniProt P08581); experiment: Kinase inhibition, c-Met; assay type: biochemical; conditions: read-out: inhibitory constant (Ki)
Description: (§1) (−)-trans-3-(5,6-dihydro-4H-pyrrolo[3,2,1-ij]quinolin-1-yl)-4-(1H-indol-3-yl)pyrrolidine-2,5-dione was assessed for its activity to inhibit a large panel (n=230) of human kinases.

[2] = target: CAMKIIδ (Homo sapiens, UniProt Q13557); experiment: Kinase panel inhibition, CAMKIIδ; assay type: biochemical
Description: as §1

[3] = tested on: panel (n=230) of human kinases; experiment: Large panel (n=230) of human kinases; assay type: biochemical; conditions: n=230 human kinases
Description: as §1

[4] = tested on: human prostate cancer PC3; experiment: Human prostate cancer xenograft; assay type: in vivo; conditions: monotherapy
Description: (§2) The efficacy of (−)-trans-3-(5,6-dihydro-4H-pyrrolo[3,2,1-ij]quinolin-1-yl)-4-(1H-indol-3-yl)pyrrolidine-2,5-dione was also tested in xenograft models with several other cancer cell lines: human pancreatic cancer MIA PaCa2 (FIG. 9, Panel B), human prostate cancer PC3 (FIG. 9, Panel C) and human gastric cancer MKN45 (FIG. 9, Panel D). The cells were treated with (−)-trans-3-(5,6-dihydro-4H-pyrrolo[3,2,1-ij]quinolin-1-yl)-4-(1H-indol-3-yl)pyrrolidine-2,5-dione as a monotherapy at indicated concentrations.

[5] = tested on: tumors; experiment: Clinical studies (tolerability and tumor responses); assay type: in vivo, human
Source text: (−)-trans-3-(5,6-dihydro-4H-pyrrolo[3,2,1-ij]quinolin-1-yl)-4-(1H-indol-3-yl)pyrrolidine-2,5,-dione is a selective inhibitor of c-Met, a receptor tyrosine kinase. When abnormally activated, c-Met plays multiple roles in aspects of human cancer, including cancer cell growth, survival, angiogenesis, invasion and metastasis.

[6] = tested on: human gastric cancer MKN45; experiment: Human gastric cancer xenograft; assay type: in vivo; conditions: monotherapy
Description: as §2

[7] = target: T1, c-Met; experiment: c-Met phosphorylation in MDA-MB-231 cells, basal and HGF-induced (Western blot); assay type: cell-based; parameters: Whole cell extracts were prepared in lysis buffer; endogenous in cells; host or cells: MDA-MB-231; conditions: serum-deprived 16 hours, 100 ng/ml HGF/SF for 10 minutes
Description: MDA-MB-231 cells were serum-deprived overnight (16 hours) in the absence or in the presence of the indicated concentrations of the separate enantiomers (+)-trans-3-(5,6-dihydro-4H-pyrrolo[3,2,1-ij]quinolin-1-yl)-4-(1H-indol-3-yl)pyrrolidine-2,5-dione and (−)-trans-3-(5,6-dihydro-4H-pyrrolo[3,2,1-ij]quinolin-1-yl)-4-(1H-indol-3-yl)pyrrolidine-2,5-dione. Cells were treated with 100 ng/ml recombinant human Hepatocyte Growth Factor/Scatter Factor (HGF/SF) (R&D Systems #294-HG) for 10 minutes. Whole cell extracts were prepared in lysis buffer (20 mM Tris-HCl pH 7.5, 150 mM NaCl, 1 mM Na2EDTA, 1 mM EGTA, 1% Triton X-100, 2.5 mM sodium pyrophosphate, 1 mM beta-glycerophosphate, 1 mM Na3VO4, 1 μg/ml leupeptin, 1 mM phenylmethylsulfonyl fluoride) and sonicated. Protein concentration was measured by Bradford assay using the BioRad reagent (BioRad, Hercules, Calif.), according to the manufacturer's directions. Samples ([…] of protein) were resolved by 8% SDS-PAGE under reducing conditions and transferred onto a PVDF membrane (BioRad). […] Proteins were detected by incubation overnight at 4° C. in TBS-T with 5% milk and either a polyclonal antibody against phosphorylated c-Met (#3121) or a monoclonal antibody against β-actin (A-5441) (Sigma), which was used as a control for total protein loading. […]

[8] = tested on: Human cancer cell lines expressing c-Met and/or phospho-c-Met; experiment: Cytotoxicity MTS assay; assay type: cell-based; conditions: 0.03 to 30 μM
Description: (§3) Various cancer cell lines were treated with (−)-trans-3-(5,6-dihydro-4H-pyrrolo[3,2,1-ij]quinolin-1-yl)-4-(1H-indol-3-yl)pyrrolidine-2,5-dione at indicated concentrations ranging from 0.03 to 30 μM. The sensitivity of these cells to (−)-trans-3-(5,6-dihydro-4H-pyrrolo[3,2,1-ij]quinolin-1-yl)-4-(1H-indol-3-yl)pyrrolidine-2,5-dione was measured by a standard cytoxicity MTS assay (FIG. 10). Human cancer cell lines expressing c-Met and/or phospho-c-Met were sensitive to (−)-trans-3-(5,6-dihydro-4H-pyrrolo[3,2,1-ij]quinolin-1-yl)-4-(1H-indol-3-yl)pyrrolidine-2,5-dione.

[9] = tested on: clear cell sarcoma and MiT-associated tumors; experiment: Clinical study in patients with clear cell sarcoma and MiT-associated tumors; assay type: in vivo, human
Source text: The present example describes the inhibition of c-Met Receptor Tyrosine Kinase in Clear Cell Sarcoma and MiT (Microphthalmia Transcription Factor)-Associated Tumors. […] The studies described in the present example used (−)-trans-3-(5,6-dihydro-4H-pyrrolo[3,2,1-ij]quinolin-1-yl)-4-(1H-indol-3-yl)pyrrolidine-2,5,-dione, a small molecule inhibitor of the c-Met receptor tyrosine kinase.
(−)-trans-3-(5,6-dihydro-4H-pyrrolo[3,2,1-ij]quinolin-1-yl)-4-(1H-indol-3-yl)pyrrolidine-2,5,-dione was administered to a patient with clear cell sarcoma. […]
(−)-trans-3-(5,6-dihydro-4H-pyrrolo[3,2,1-ij]quinolin-1-yl)-4-(1H-indol-3-yl)pyrrolidine-2,5,-dione is administered to patients with MiT (Microphthalmia Transcription Factor)-associated tumors. MiT tumors, which can include clear cell sarcoma (CCS), alveolar soft part sarcoma (ASPS) and translocation-associated renal cell carcinoma (RCC), are linked biologically through a common chromosomal abnormality that is responsible for the overexpression of c-Met resulting in the development of these tumors. Tumors with this abnormality are resistant to current therapies and, in the absence of successful surgical resection, are invariably fatal.

[10] = target: PAK3 (Homo sapiens, UniProt O75914); experiment: Kinase panel inhibition, PAK3; assay type: biochemical
PAK3, sequence (O75914 whole entry): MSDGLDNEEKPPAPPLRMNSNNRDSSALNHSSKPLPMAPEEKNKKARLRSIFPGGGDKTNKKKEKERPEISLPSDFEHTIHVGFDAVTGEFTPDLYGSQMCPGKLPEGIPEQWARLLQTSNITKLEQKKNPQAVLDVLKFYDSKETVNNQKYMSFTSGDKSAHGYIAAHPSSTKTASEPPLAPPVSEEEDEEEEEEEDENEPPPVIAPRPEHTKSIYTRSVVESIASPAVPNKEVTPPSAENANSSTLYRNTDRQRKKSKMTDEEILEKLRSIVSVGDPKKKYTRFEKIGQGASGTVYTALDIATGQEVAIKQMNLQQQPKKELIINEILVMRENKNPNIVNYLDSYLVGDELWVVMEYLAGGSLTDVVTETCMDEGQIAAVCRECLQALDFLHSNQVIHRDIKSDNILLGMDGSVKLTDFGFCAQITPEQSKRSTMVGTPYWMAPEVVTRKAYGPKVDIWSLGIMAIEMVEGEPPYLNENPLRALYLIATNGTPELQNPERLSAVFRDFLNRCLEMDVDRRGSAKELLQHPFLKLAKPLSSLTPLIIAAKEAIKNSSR
Description: as §1

[11] = tested on: MCF-7; experiment: Cytotoxicity MTS assay; assay type: cell-based, human; conditions: 0.03 to 30 μM; no immunodetectable c-Met or phospho-c-Met
Description: as §3

[12] = tested on: NCI-H661; experiment: Cytotoxicity MTS assay; assay type: cell-based, human; conditions: 0.03 to 30 μM; no immunodetectable c-Met or phospho-c-Met
Description: as §3

[13] = tested on: SK-MEL-28; experiment: Cytotoxicity MTS assay; assay type: cell-based, human; conditions: 0.03 to 30 μM; no immunodetectable c-Met or phospho-c-Met
Description: as §3

T1 sequence (P08581 25-1390): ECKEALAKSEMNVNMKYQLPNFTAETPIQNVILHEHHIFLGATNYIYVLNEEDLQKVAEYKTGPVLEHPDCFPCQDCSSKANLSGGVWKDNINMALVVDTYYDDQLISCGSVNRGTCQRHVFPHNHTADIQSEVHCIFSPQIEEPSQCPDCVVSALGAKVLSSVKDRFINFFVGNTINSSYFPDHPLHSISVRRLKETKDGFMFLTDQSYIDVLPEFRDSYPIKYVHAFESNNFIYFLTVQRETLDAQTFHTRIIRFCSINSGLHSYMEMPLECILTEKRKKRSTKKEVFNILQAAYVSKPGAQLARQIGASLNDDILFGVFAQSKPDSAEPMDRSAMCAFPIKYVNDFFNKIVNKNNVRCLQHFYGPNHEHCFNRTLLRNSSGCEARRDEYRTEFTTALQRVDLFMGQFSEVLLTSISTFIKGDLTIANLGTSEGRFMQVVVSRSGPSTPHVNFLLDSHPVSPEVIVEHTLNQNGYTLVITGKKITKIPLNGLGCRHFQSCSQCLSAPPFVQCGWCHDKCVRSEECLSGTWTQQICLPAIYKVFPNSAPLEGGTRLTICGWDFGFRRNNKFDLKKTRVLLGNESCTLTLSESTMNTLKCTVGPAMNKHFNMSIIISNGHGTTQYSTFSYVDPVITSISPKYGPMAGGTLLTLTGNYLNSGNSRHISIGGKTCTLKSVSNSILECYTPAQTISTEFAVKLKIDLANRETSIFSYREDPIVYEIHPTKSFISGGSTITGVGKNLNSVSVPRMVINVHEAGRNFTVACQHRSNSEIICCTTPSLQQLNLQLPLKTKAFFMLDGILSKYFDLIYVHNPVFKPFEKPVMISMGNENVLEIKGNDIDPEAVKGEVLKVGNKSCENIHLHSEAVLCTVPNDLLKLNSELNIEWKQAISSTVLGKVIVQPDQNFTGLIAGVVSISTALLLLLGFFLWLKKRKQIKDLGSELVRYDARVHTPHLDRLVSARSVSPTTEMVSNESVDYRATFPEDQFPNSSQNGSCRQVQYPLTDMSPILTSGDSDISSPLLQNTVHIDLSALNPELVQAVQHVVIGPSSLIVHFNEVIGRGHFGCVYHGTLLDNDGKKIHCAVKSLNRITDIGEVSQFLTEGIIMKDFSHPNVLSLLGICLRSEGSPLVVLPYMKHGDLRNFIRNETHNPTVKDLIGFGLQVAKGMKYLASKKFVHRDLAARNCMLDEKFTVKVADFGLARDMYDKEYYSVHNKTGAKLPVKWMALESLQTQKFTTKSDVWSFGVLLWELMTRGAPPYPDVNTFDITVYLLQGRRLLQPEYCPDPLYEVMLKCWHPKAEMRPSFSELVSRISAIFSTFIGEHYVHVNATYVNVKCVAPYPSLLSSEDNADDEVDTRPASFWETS

- Ki [1]: ~0.36 µM
- IC50 [2]: ~10 µM
- concentration that inhibits both basal and HGF-induced autophosphorylation of c-Met [7]: at least 30 nM
- IC50 [10]: ~6.6 µM
SMILES: O=C1NC(=O)[C@@H](c2cn3c4c(cccc24)CCC3)[C@@H]1c1c[nH]c2ccccc12 (single isomer, unassigned) [(−)-trans-3-(5,6-dihydro-4H-pyrrolo[3,2,1-ij]quinolin-1-yl)-4-(1H-indol-3-yl)pyrrolidine-2,5-dione]
- kinase selectivity in panel [3]: inhibited only c-Met to a significant degree
- tumor growth [4]: significantly inhibited tumor growth
- tumor responses in clinical studies ([5]; broad ranges of tumors and doses): tumor responses and prolonged stable disease
- tolerability in clinical studies ([5]; human, in vivo): well tolerated
- tumor growth [6]: significantly inhibited tumor growth
- sensitivity (cytotoxicity MTS assay) [8]: sensitive
- patients with stable disease ([9]; 120 mg b.i.d., 23 patients enrolled, fourteen evaluable for efficacy): ten of the evaluable patients have demonstrated stable disease
- response as defined by RECIST ([9]; a patient with clear cell sarcoma): partial response
- sensitivity (cytotoxicity MTS assay) [11]: little sensitivity
- sensitivity (cytotoxicity MTS assay) [12]: little sensitivity
- sensitivity (cytotoxicity MTS assay) [13]: little sensitivity
